How the values were obtained:
Guinea Pigs = assay: Test for skin sensitization in guinea pigs (adjuvant and patch test method)
Procedure: The dorsal area of male Hartley guinea pigs (n=5) at the age of 7 weeks was shaved with an electric shaver, and on the following day, primary sensitization was initiated. In the primary sensitization, emulsified complete Freund's adjuvant was intradermally administered at a dose of 0.1 ml only at the initial time, and an adhesive plaster for a patch test spread with 0.1 g of an ointment containing a test compound at 1%, was applied in an occluded state to the site where the adjuvant was intradermally administered. As a base of the ointment, petrolatum containing sorbitan sesquioleate (a surfactant) at 1% was used. At 24 hours after the adhesive plaster for a patch test was applied, the adhesive plaster was removed, and the application site was cleaned by wiping. The procedure of this primary sensitization was performed once daily and continued for a total of 3 days. On 7 days after the initial application of the primary sensitization, secondary sensitization was performed. The site subjected to the primary sensitization was shaved, and an ointment containing sodium lauryl sulfate at 10% was applied thereto in an open state. After 24 hours, the application site was cleaned by wiping, and a lint cloth spread with 0.2 g of the ointment containing a test compound at 1% was applied, thereto in an occluded state. At 48 hours after the lint cloth was applied, the cloth was removed, and the application site was cleaned by wiping. Challenge was performed on 13 days after initiation of the secondary sensitization. The dorsal area and flank area were shaved, and 0.01 g of the ointment containing a test compound at 1% was applied to the challenge site and left for about 24 hours. At about 24 hours and 48 hours after the challenge, observation of the skin surface was performed, and the presence or absence of sensitizing was determined. The determination was carried out by scoring according to the evaluation criteria (see Table 1) of the Draize method (1959).
In this connection, as a positive control, 1-chloro-2,4-dinitrobenzene (DNCB) (sensitization: 1%, challenge: 0.1%) was used. As the test compound, the compounds of Example 58 and Example 248 were used. As a comparative control, 4-[((1S,2R)-2-{[amino(imino)methyl]amino}cyclohexyl)amino]-N-isobutyl-6-methylquinazoline-2-carboxamide dihydrochloride described in Example 383 in Patent document 1 (sensitization: 0.1%, induction: 1%) was used.

Rabbits = conditions: female, Kbs: JW, rabbit, in vivo, 24 h
Description: Then, erythema and edema formation at the application site was observed. […] The mean value of the sum of erythema and edema scores was used as a simple primary skin irritation index. […]

Mice [1] = assay: Effect on scratching behavior induced by serotonin application in mice; format: in vivo, mouse; conditions: counted for 15 minutes
Procedure: To the cervical and dorsal area of male ICR mice (n=3 to 6) at the age of 4 to 6 weeks, 100 μl of a solution obtained by dissolving serotonin hydrochloride in ethanol at 0.1% (hereinafter referred to as serotonin) was applied, and the number of scratching behavior at the application site with the hind legs occurring immediately after the application was counted for 15 minutes after administration with a counter. Administration of a test compound was carried out by skin application, intravenous administration or oral administration. In the case of skin application, the test compound that was dissolved in ethanol was applied in an amount of 100 μl concurrently with serotonin. In the case of intravenous administration, the test compound that was dissolved in physiological saline was administered at a dose of 10 ml/kg at 5 minutes prior to the serotonin application. In the case of oral administration, the test compound that was dissolved in distilled water was administered at a dose of 10 ml/kg at 20 minutes prior to the serotonin application. The control group of each administration route was given the respective solvent, and the values of scratching behavior were compared between the control group and the test compound group.
The results obtained by skin application of the test compound are shown in Table 3; the results obtained by intravenous administration of the test compound are shown in Table 4; and the results obtained by oral administration of the test compound are shown in Table 5.

Mice [2] = assay: Acute toxicity test in mice; format: in vivo, mouse; conditions: intravenous, observed for 2 hours
Description: Male ICR mice at the age of 4 to 6 weeks were used.

[3] = positive control, sensitization: 1%, challenge: 0.1%, n=5
[4] = skin application, concentration 0.1% in ethanol, concurrently with serotonin
[5] = oral administration, dose 30 mg/kg, 20 minutes prior to serotonin

| Compound | Simple primary skin irritation index (Rabbits) | Average number of scratching behavior (Mice [1]; [4]) | Average number of scratching behavior (Mice [1]; [5]) | Change in behavior (Mice [2]; 10 mg/kg) | other results |
| --- | --- | --- | --- | --- | --- |
| Cc1ccc2nc(C(=O)NCC(C)C)nc(N[C@H]3CCCC[C@H]3NC(=N)N)c2c1.Cl.Cl [Comparative control A, 4-[((1S,2R)-2-{[amino(imino)methyl]amino}cyclohexyl)amino]-N-isobutyl-6-methylquinazoline-2-carboxamide dihydrochloride] | 1.8 |  |  |  | edema (Draize score, cases) (Guinea Pigs; guinea pig, in vivo): edema was not observed in all the cases; erythema (Draize score, cases) (Guinea Pigs; male, Hartley, guinea pig, in vivo): well-defined erythema (score 2) was observed in 2/5 cases |
| O=[N+]([O-])c1ccc(Cl)c([N+](=O)[O-])c1 [DNCB, 1-chloro-2,4-dinitrobenzene] |  |  |  |  | edema (Draize score, cases) (Guinea Pigs; [3]): score 1 in 3/5 cases, and score 0 in 2/5 cases; erythema (Draize score, cases) (Guinea Pigs; [3]): score 3 in 3/5 cases, score 2 in 1/5 cases, and score 1 in 1/5 cases |
| COCCNC(=O)c1nc(N[C@H]2CCCC[C@H]2NC(N)=NOC)c2cc(C)ccc2n1.Cl.Cl [Example 208, 4-[((1S,2R)-2-{[amino(methoxyimino)methyl]amino}cyclohexyl)amino]-N-(2-methoxyethyl)-6-methylquinazolin-2-carboxamide dihydrochloride] | 0.2 | 81.0 |  |  | Average number of scratching behavior (Mice [1]; intravenous administration, dose 3 mg/kg, 5 minutes prior to serotonin): 53.8; Change in behavior (Mice [2]; 20 mg/kg): No obvious change |
| COCCCNC(=O)c1nc(N[C@H]2CCCC[C@H]2NC(N)=NO)c2cc(C)ccc2n1.Cl.Cl [Example 240, 4-[((1S,2R)-2-{[amino(hydroxyimino)methyl]amino}cyclohexyl)amino]-N-(3-methoxypropyl)-6-methylquinazolin-2-carboxamide dihydrochloride] | 1.0 | 65.3 | 95.2 | No obvious change |  |
| COCCCNC(=O)c1nc(N[C@H]2CCCC[C@H]2NC(N)=NOC)c2cc(C)ccc2n1.Cl.Cl [Example 239, 4-[((1S,2R)-2-{[amino(methoxyimino)methyl]amino}cyclohexyl)amino]-N-(3-methoxypropyl)-6-methylquinazolin-2-carboxamide dihydrochloride] | 1.0 | 55.8 | 88.6 | No obvious change |  |

— patent US8835446B2, “Quinazoline derivatives and pharmaceutical compositions thereof” (Nippon Shinyaku Co., Ltd., priority 2005, dated 2014)
